pEC50: −log10 of the molar value.
The compounds below were run on BJAB cells (assay: BJAB cell proliferation (Cell Titer Glo)). Conditions: Homo sapiens, read-out: EC50.
Format: cell-based
Summary of the method: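 EC50 values come from non-linear regression of luminescence (Cell Titer Glo), expressed relative to untreated wells. BJAB cells were incubated roughly 72 h at 37 °C with serial compound dilutions carrying 0.1% final DMSO.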

Structure (SMILES) | pEC50
COc1cc(-c2c(C)nn(-c3nc(-c4ccc(C(F)(F)F)cc4)c(SC(C)C)s3)c2C(=O)O)ccc1F [Compound 238, 4-(4-fluoro-3-methoxyphenyl)-1-(5-(isopropylthio)-4-(4-(trifluoromethyl)phenyl)thiazol-2-yl)-3-methyl-1H-pyrazole-5-carboxylic acid] | 5.30 to 6.00
Cc1cc(Cl)cc(C)c1-c1nc(-n2nc(C)c(-c3cccc(F)c3)c2C(=O)O)sc1SC(C)C [Compound 239, 1-(4-(4-chloro-2,6-dimethylphenyl)-5-(isopropylthio)thiazol-2-yl)-4-(3-fluorophenyl)-3-methyl-1H-pyrazole-5-carboxylic Acid] | 5.00 to 5.30
Cc1nn(-c2nc(-c3ccc(C(C)(F)F)cc3)c(SC(C)C)s2)c(C(=O)O)c1-c1cccc(F)c1 [Compound 240, 1-(4-(4-(1,1-difluoroethyl)phenyl)-5-(isopropylthio)thiazol-2-yl)-4-(3-fluorophenyl)-3-methyl-1H-pyrazole-5-carboxylic acid] | 5.30 to 6.00
Cc1cc(-c2c(C)nn(-c3nc(-c4ccc(C(F)(F)F)cc4)c(SC(C)C)s3)c2C(=O)O)cc(C)c1F [Compound 241, 4-(4-fluoro-3,5-dimethylphenyl)-1-(5-(isopropylthio)-4-(4-(trifluoromethyl)phenyl)thiazol-2-yl)-3-methyl-1H-pyrazole-5-carboxylic acid] | > 6.00
Cc1nn(-c2nc(-c3cnc(C(F)(F)F)nc3)c(SC(C)C)s2)c(C(=O)O)c1-c1cccc(F)c1 [Compound 242, 4-(3-fluorophenyl)-1-(5-(isopropylthio)-4-(2-(trifluoromethyl)pyrimidin-5-yl)thiazol-2-yl)-3-methyl-1H-pyrazole-5-carboxylic Acid] | 5.00 to 5.30
CCNC(=O)c1cc(-c2nc(-n3nc(C)c(-c4cccc(F)c4)c3C(=O)O)sc2SC(C)C)ccc1Cl [Compound 243, 1-(4-(4-chloro-3-(ethylcarbamoyl)phenyl)-5-(isopropylthio)thiazol-2-yl)-4-(3-fluorophenyl)-3-methyl-1H-pyrazole-5-carboxylic Acid] | < 4.40
Cc1nn(-c2nc(-c3ccc(C(F)(F)F)cc3N)c(SC(C)C)s2)c(C(=O)O)c1-c1cccc(F)c1 [Compound 244, 1-(4-(2-amino-4-(trifluoromethyl)phenyl)-5-(isopropylthio)thiazol-2-yl)-4-(3-fluorophenyl)-3-methyl-1H-pyrazole-5-carboxylic Acid] | 5.30 to 6.00
Cc1nn(-c2nc(C#Cc3ccc(C(F)(F)F)cc3)c(SC(C)C)s2)c(C(=O)O)c1-c1cccc(F)c1 [Compound 245, 4-(3-fluorophenyl)-1-(5-(isopropylthio)-4-((4-(trifluoromethyl)phenyl)ethynyl)thiazol-2-yl)-3-methyl-1H-pyrazole-5-carboxylic acid] | 4.60 to 5.00
Cc1nn(-c2nc(-c3ncc(C(F)(F)F)cn3)c(SC(C)C)s2)c(C(=O)O)c1-c1cccc(F)c1 [Compound 246, 4-(3-fluorophenyl)-1-(5-(isopropylthio)-4-(5-(trifluoromethyl)pyrimidin-2-yl)thiazol-2-yl)-3-methyl-1H-pyrazole-5-carboxylic Acid] | 4.60 to 5.00
Cc1nn(-c2nc(-c3ccc(C(F)(F)F)cc3)cs2)c(C(=O)O)c1-c1cccc(F)c1 [Compound 247, 4-(3-fluorophenyl)-3-methyl-1-(4-(4-(trifluoromethyl)phenyl)thiazol-2-yl)-1H-pyrazole-5-carboxylic acid] | 4.60 to 5.00
COCCN(C)C(=O)c1c(-c2cccc(F)c2)c(C)nn1-c1nc(-c2ccc(C(F)(F)F)cc2)c(SC(C)C)s1 [Compound 248, 4-(3-fluorophenyl)-1-(5-(isopropylthio)-4-(4-(trifluoromethyl)phenyl)thiazol-2-yl)-N-(2-methoxyethyl)-N,3-dimethyl-1H-pyrazole-5-carboxamide] | < 4.70
Cc1nn(-c2nc(-c3ccc(C(F)(F)F)cc3)c(SC(C)C)s2)c(C(=O)NCCOCCOCCOCCN=[N+]=[N-])c1-c1cccc(F)c1 [Compound 249, N-(2-(2-(2-(2-azidoethoxy)ethoxy)ethoxy)ethyl)-4-(3-fluorophenyl)-1-(5-(isopropylthio)-4-(4-(trifluoromethyl)phenyl)thiazol-2-yl)-3-methyl-1H-pyrazole-5-carboxamide] | < 4.70
COCCNC(=O)c1c(-c2cccc(F)c2)c(C)nn1-c1nc(-c2ccc(C(F)(F)F)cc2)c(SC(C)C)s1 [Compound 250, 4-(3-fluorophenyl)-1-(5-(isopropylthio)-4-(4-(trifluoromethyl)phenyl)thiazol-2-yl)-N-(2-methoxyethyl)-3-methyl-1H-pyrazole-5-carboxamide] | 4.60 to 5.00
CCCS(=O)(=O)NC(=O)c1c(-c2cccc(F)c2)c(C)nn1-c1nc(-c2ccc(C(F)(F)F)cc2)c(SC(C)C)s1 [Compound 251, 4-(3-fluorophenyl)-1-(5-(isopropylthio)-4-(4-(trifluoromethyl)phenyl)thiazol-2-yl)-3-methyl-N-(propylsulfonyl)-1H-pyrazole-5-carboxamide] | < 4.70
Cc1nn(-c2nc(-c3ccccc3C(F)(F)F)c(SC(C)C)s2)c(C(=O)O)c1-c1cccc(F)c1 [Compound 252, 4-(3-fluorophenyl)-1-(5-(isopropylthio)-4-(2-(trifluoromethyl)phenyl)thiazol-2-yl)-3-methyl-1H-pyrazole-5-carboxylic acid] | 4.60 to 5.00
Cc1nn(-c2nc(-c3cccc(C(F)(F)F)c3)c(SC(C)C)s2)c(C(=O)O)c1-c1cccc(F)c1 [Compound 253, 4-(3-fluorophenyl)-1-(5-(isopropylthio)-4-(3-(trifluoromethyl)phenyl)thiazol-2-yl)-3-methyl-1H-pyrazole-5-carboxylic acid] | 5.00 to 5.30
Cc1nn(-c2nc(-c3ccc(C(F)(F)F)cc3)c(NC(C)C)s2)c(C(=O)O)c1-c1cccc(F)c1 [Compound 254, 4-(3-fluorophenyl)-1-(5-(isopropylamino)-4-(4-(trifluoromethyl)phenyl)thiazol-2-yl)-3-methyl-1H-pyrazole-5-carboxylic acid] | 5.00 to 5.30
Cc1nn(-c2nc(-c3ccc(S(F)(F)(F)(F)F)cc3)c(SC(C)C)s2)c(C(=O)O)c1-c1cccc(F)c1 [Compound 255, 4-(3-fluorophenyl)-1-(5-(isopropylthio)-4-(4-(pentafluoro-λ^6-sulfaneyl)phenyl)thiazol-2-yl)-3-methyl-1H-pyrazole-5-carboxylic acid] | > 6.00
CONC(=O)c1c(-c2cccc(F)c2)c(C)nn1-c1nc(-c2ccc(C(F)(F)F)cc2)c(SC(C)C)s1 [Compound 256, 4-(3-fluorophenyl)-1-(5-(isopropylthio)-4-(4-(trifluoromethyl)phenyl)thiazol-2-yl)-N-methoxy-3-methyl-1H-pyrazole-5-carboxamide] | 4.60 to 5.00
Cc1nn(-c2nc(-c3ccc(CC(F)(F)F)cc3)c(SC(C)C)s2)c(C(=O)O)c1-c1cccc(F)c1 [Compound 257, 4-(3-fluorophenyl)-1-(5-(isopropylthio)-4-(4-(2,2,2-trifluoroethyl)phenyl)thiazol-2-yl)-3-methyl-1H-pyrazole-5-carboxylic acid] | 5.30 to 6.00
Cc1nn(-c2nc(-c3ccc(C(F)(F)F)nc3)c(SC(C)C)s2)c(C(=O)O)c1-c1cccc(F)c1 [Compound 258, 4-(3-fluorophenyl)-1-(5-(isopropylthio)-4-(6-(trifluoromethyl)pyridin-3-yl)thiazol-2-yl)-3-methyl-1H-pyrazole-5-carboxylic acid] | 5.30 to 6.00
Cc1nn(-c2nc(-c3cnn(CC(F)(F)F)c3)c(SC(C)C)s2)c(C(=O)O)c1-c1cccc(F)c1 [Compound 259, 4-(3-fluorophenyl)-1-(5-(isopropylthio)-4-(1-(2,2,2-trifluoroethyl)-1H-pyrazol-4-yl)thiazol-2-yl)-3-methyl-1H-pyrazole-5-carboxylic acid] | 4.60 to 5.00

— patent US10537558B2 (Bantam Pharmaceutical, LLC, priority 2015, dated 2020)
